Here are results for 25 compounds from patent publication US20240368133A1, “Compounds for the Treatment of Pain, in Particular, Neuropathic Pain, and/or Other Diseases or Disorders that are Associated with AT2R and/or AT2R Mediated Signaling” (Confo Therapeutics N.V., priority 2021, published 2024).

One assay concerns the target human AT2R fused to Cb23 (Homo sapiens, UniProt P50052). In words: Radioligand binding assay, displacement of 125I-[Sar1, Ile8]-Angiotensin II, hAT2R Cb23. The settings on record: displacement of 125I-[Sar1, Ile8]-Angiotensin II, human AT2R fused to Cb23, HEK-293 cell membrane preparations; read-out: Binding affinity on hAT2R_Cb23 IC50. An outline of the steps:
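Membranes from HEK-293 cells expressing human AT2R fused to Cb23 were incubated with 0.05 nM 125I-[Sar1, Ile8]-Angiotensin II in 100 μL buffer (50 mM Tris, 5 mM MgCl2, 1 mM EDTA, 0.1% BSA, pH 7.4) for one hour at 25° C. Ligands were tested as eight-point dose-response curves in duplicate, with C21 and Angiotensin II as references.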
On the technique in general: Displacement assays read how much labelled ligand stays bound in the presence of the test substance.

A further assay concerns the target human AT1R (Homo sapiens (Human), UniProt P30556). In words: Counterscreen radioligand binding assay, displacement of 125I-[Sar1, Ile8]-Angiotensin II, hAT1R WT. Particulars: for inhibition at 1 µM / inhibition at 10 µM: 125I-[Sar1, Ile8]-Ang II, semi-quantitative score; for inhibition at 1 µM: compound at 1 μM, read-out: % Displaced radioligand at 1 μM; for inhibition at 10 µM: compound at 10 μM, read-out: % Displaced radioligand at 10 μM; for IC50: HEK-293 cell membranes, read-out: Binding affinity On hAT1R IC50. A digest of the protocol:
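Compounds displaced 0.05 nM 125I-[Sar1, Ile8]-Ang II from human AT1R in HEK-293 membranes (1 h, 25° C; Tris/MgCl2/EDTA/BSA buffer, pH 7.4). Readout was filtration and scintillation counting, with non-specific binding set by 10 μM [Sar1]-Ang II. Values are % displacement at 1 μM and […], or IC50 from eight-point four-parameter fits.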
For orientation: A counterscreen serves to expose hits that act by an unwanted route or on another target.

Chain of human AT2R fused to Cb23 (P50052 whole entry, looked up, the tested form may be a part): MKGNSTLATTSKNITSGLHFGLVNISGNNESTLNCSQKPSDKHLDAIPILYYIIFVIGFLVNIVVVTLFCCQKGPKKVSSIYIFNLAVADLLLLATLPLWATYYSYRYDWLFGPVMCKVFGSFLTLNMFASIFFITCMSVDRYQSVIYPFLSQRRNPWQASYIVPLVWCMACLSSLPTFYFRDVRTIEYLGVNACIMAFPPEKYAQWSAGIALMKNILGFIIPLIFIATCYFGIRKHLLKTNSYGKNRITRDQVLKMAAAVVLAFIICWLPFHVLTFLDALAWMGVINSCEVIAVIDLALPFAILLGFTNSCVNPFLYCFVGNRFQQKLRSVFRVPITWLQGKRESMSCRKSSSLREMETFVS
Chain of human AT1R (P30556 whole entry): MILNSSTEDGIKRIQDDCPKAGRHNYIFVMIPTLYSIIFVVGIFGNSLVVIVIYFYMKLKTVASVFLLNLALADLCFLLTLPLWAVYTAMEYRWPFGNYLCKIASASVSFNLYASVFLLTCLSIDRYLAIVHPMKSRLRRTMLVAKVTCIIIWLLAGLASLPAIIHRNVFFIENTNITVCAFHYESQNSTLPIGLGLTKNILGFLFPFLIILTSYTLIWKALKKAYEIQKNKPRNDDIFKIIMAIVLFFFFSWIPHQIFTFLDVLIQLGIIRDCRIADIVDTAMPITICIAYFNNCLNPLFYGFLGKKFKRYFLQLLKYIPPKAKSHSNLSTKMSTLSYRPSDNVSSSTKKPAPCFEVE

As to `CC(C)Cc1ccc(-c2nn[nH]n2)c(N2CCN(Cc3cc(=O)n4ccccc4n3)CC2)c1` [Compound A-76, 2-[[4-[5-isobutyl-2-(2H-tetrazol-5-yl)-phenyl]piperazin-1-yl]methyl]pyrido-[1,2-a]pyrimidin-4-one], the half-maximal inhibitory concentration (IC50) at human AT2R fused to Cb23 was found to be 5.57 µM. At human AT1R, the inhibition at 1 µM was below 30% and the inhibition at 10 µM is below 30%.
Turning to `CC(C)Cc1ccc(-c2nn[nH]n2)c(N2CCN(Cc3cc4ccccc4n(C)c3=O)CC2)c1` [Compound A-77, 3-[[4-[5-isobutyl-2-(2H-tetrazol-5-yl)-phenyl]piperazin-1-yl]methyl]-1-methyl-quinolin-2-one], the half-inhibitory concentration (IC50) at human AT2R fused to Cb23 worked out at 2.91 µM. At human AT1R, the inhibition at 1 µM is below 30%, the inhibition at 10 µM lay in the range of 30 to 50% and the 50% inhibitory concentration (IC50) turned out to be 13.5 µM.
On the same counts, the results for `CC(C)Cc1ccc(-c2nn[nH]n2)c(N2CCN(Cc3nc4ccccc4c(=O)n3C)CC2)c1` [Compound A-78, 2-[[4-[5-isobutyl-2-(2H-tetrazol-5-yl)-phenyl]piperazin-1-yl]methyl]-3-methyl-quinazolin-4-one] are 1.5 µM, below 30%, 30 to 50% and 12.2 µM.
In the case of `CC(C)Cc1ccc(-c2nn[nH]n2)c(N2CCN(Cc3nc4ccccc4n(C)c3=O)CC2)c1` [Compound A-79, 3-[[4-[5-isobutyl-2-(2H-tetrazol-5-yl)-phenyl]piperazin-1-yl]methyl]-1-methyl-quinoxalin-2-one], the IC50 on human AT2R fused to Cb23 came to 4.72 µM. Besides, on human AT1R, the inhibition at 1 µM is below 30% and the inhibition at 10 µM is below 30%.
For the compound `CC(C)Cc1ccc(-c2nn[nH]n2)c(N2CCN(Cc3cnc4ccccn34)CC2)c1` [Compound A-80, 3-[[4-[5-isobutyl-2-(2H-tetrazol-5-yl)-phenyl]piperazin-1-yl]methyl]imid-azo[1,2-a]pyridine], the half-inhibitory concentration (IC50) on human AT2R fused to Cb23 was 0.222 µM. For the same compound, at human AT1R, the inhibition at 1 µM is below 30% and the inhibition at 10 µM is below 30%.
For `CC(C)Cc1ccc(-c2nn[nH]n2)c(N2CCN(Cc3nn(C)c4ccccc34)CC2)c1` [Compound A-81, 3-[[4-[5-isobutyl-2-(2H-tetrazol-5-yl)-phenyl]piperazin-1-yl]methyl]-1-methyl-indazole], the IC50 at human AT2R fused to Cb23 worked out at 1.84 µM. Moreover, on human AT1R, the inhibition at 1 µM is below 30% and the inhibition at 10 µM is below 30%.
As for `CC(C)Cc1ccc(-c2nn[nH]n2)c(N2CCN(Cc3ccc(C(F)(F)F)cn3)CC2)c1` [Compound A-85, 1-[5-isobutyl-2-(2H-tetrazol-5-yl)-phenyl]-4-[[5-(trifluoromethyl)-2-pyridyl]methyl]-piperazine], the concentration for half-maximal inhibition (IC50) on human AT2R fused to Cb23 worked out at 2.03 µM. Also, at human AT1R, the inhibition at 1 µM is below 30%, the inhibition at 10 µM is below 30% and the half-maximal inhibitory concentration (IC50) is 45 µM.
As to `Cc1nc(CN2CCN(c3cc(CC(C)C)ccc3-c3nn[nH]n3)CC2)no1` [Compound A-86, 3-[[4-[5-isobutyl-2-(2H-tetrazol-5-yl)phenyl]piperazin-1-yl]methyl]-5-methyl-1,2,4-oxadiazole], the IC50 at human AT2R fused to Cb23 was 24.9 µM. For the same compound, on human AT1R, the inhibition at 1 µM is below 30% and the inhibition at 10 µM is below 30%.
For `Cc1nc(CN2CCN(c3cc(CC(C)C)ccc3-c3nn[nH]n3)CC2)cs1` [Compound A-87], the IC50 at human AT2R fused to Cb23 came to 3.81 µM. Moreover, at human AT1R, the inhibition at 1 µM is below 30% and the inhibition at 10 µM is below 30%.
On to `Cc1cc(CN2CCN(c3cc(CC(C)C)ccc3-c3nn[nH]n3)CC2)on1` [Compound A-89, 5-[[4-[5-isobutyl-2-(2H-tetrazol-5-yl)-phenyl]piperazin-1-yl]methyl]-3-methyl-isoxazole], for which, on human AT2R fused to Cb23, the IC50 stood at 9.78 µM. Further, on human AT1R, the inhibition at 1 µM was below 30% and the inhibition at 10 µM was below 30%.
Turning to `CC(C)Cc1ccc(-c2nn[nH]n2)c(N2CCN(Cc3cnccn3)CC2)c1` [Compound A-93, 2-[[4-[5-isobutyl-2-(2H-tetrazol-5-yl)-phenyl]piperazin-1-yl]methyl]pyr-azine], the IC50 at human AT2R fused to Cb23 amounted to 6.98 µM. Besides, at human AT1R, the inhibition at 1 µM is below 30% and the inhibition at 10 µM was below 30%.
In the case of `CC(C)Cc1ccc(-c2nn[nH]n2)c(N2CCN(Cc3nncn3C)CC2)c1` [Compound A-94, 1-[5-isobutyl-2-(2H-tetrazol-5-yl)phenyl]-4-[(4-methyl-1,2,4-triazol-3-yl)methyl]piperazine], the IC50 at human AT2R fused to Cb23 was 4.77 µM. Also, on human AT1R, the inhibition at 1 µM was below 30%, the inhibition at 10 µM was in the range of 30 to 50% and the half-maximal inhibitory concentration (IC50) amounted to 14.2 µM.
Take `CC(C)Cc1ccc(-c2nn[nH]n2)c(N2CCN(Cc3nccs3)CC2)c1` [Compound A-97, 2-[[4-[5-isobutyl-2-(2H-tetrazol-5-yl)phenyl]piperazin-1-yl]methyl]thiazole]: the IC50 on human AT2R fused to Cb23 was 0.757 µM. At human AT1R, the inhibition at 1 µM is below 30% and the inhibition at 10 µM is below 30%.
Turning to `CC(C)Cc1ccc(-c2nn[nH]n2)c(N2CCN(Cc3ncco3)CC2)c1` [Compound A-98, 2-[[4-[5-isobutyl-2-(2H-tetrazol-5-yl)-phenyl]piperazin-1-yl]methyl]oxazole], the half-maximal inhibitory concentration (IC50) at human AT2R fused to Cb23 is 5.69 µM. For the same compound, on human AT1R, the inhibition at 1 µM was below 30% and the inhibition at 10 µM is below 30%.
For the compound `Cc1noc(C)c1CN1CCN(c2cc(CC(C)C)ccc2-c2nn[nH]n2)CC1` [Compound A-101], the IC50 at human AT2R fused to Cb23 was 4.48 µM. In addition, on human AT1R, the inhibition at 1 µM was below 30% and the inhibition at 10 µM was below 30%.
`CC(C)Cc1ccc(-c2nn[nH]n2)c(N2CCN(Cc3cc(C4CC4)on3)CC2)c1` [Compound A-102, 5-cyclopropyl-3-[[4-[5-isobutyl-2-(2H-tetrazol-5-yl)phenyl]piperazin-1-yl]methyl]isoxazole]: at human AT2R fused to Cb23, the IC50 amounted to 7.07 µM. Further, on human AT1R, the inhibition at 1 µM was below 30% and the inhibition at 10 µM was below 30%.
Take `Cc1cc(CN2CCN(c3cc(CC(C)C)ccc3-c3nn[nH]n3)CC2)n(C)n1` [Compound A-104, 1-[(2,5-dimethyl-pyrazol-3-yl)meth-yl]-4-[5-isobutyl-2-(2H-tetrazol-5-yl)-phenyl]piperazine]: the IC50 at human AT2R fused to Cb23 stood at 6 µM. Besides, at human AT1R, the inhibition at 1 µM is below 30% and the inhibition at 10 µM was below 30%.
For the compound `CC(C)Cc1ccc(-c2nn[nH]n2)c(N2CCN(Cc3cncn3C)CC2)c1` [Compound A-105, 1-[5-isobutyl-2-(2H-tetrazol-5-yl)phenyl]-4-[(3-methylimidazol-4-yl)methyl]piperazine], the concentration for half-maximal inhibition (IC50) on human AT2R fused to Cb23 stood at 2 µM. In addition, on human AT1R, the inhibition at 1 µM was below 30% and the inhibition at 10 µM is below 30%.
Consider `Cc1cnc(CN2CCN(c3cc(CC(C)C)ccc3-c3nn[nH]n3)CC2)s1` [Compound A-106, 2-[[4-[5-isobutyl-2-(2H-tetrazol-5-yl)phenyl]piperazin-1-yl]methyl]-5-methyl-thiazole], for which the 50% inhibitory concentration (IC50) on human AT2R fused to Cb23 was 0.0355 µM. Moreover, on human AT1R, the inhibition at 1 µM is below 30% and the inhibition at 10 µM was below 30%.
As for `Cc1scnc1CN1CCN(c2cc(CC(C)C)ccc2-c2nn[nH]n2)CC1` [Compound A-111, 4-[[4-[5-isobutyl-2-(2H-tetrazol-5-yl)phenyl]piperazin-1-yl]methyl]-5-methyl-thiazole], at human AT2R fused to Cb23, the IC50 was found to be 5.43 µM. In addition, on human AT1R, the inhibition at 1 µM is below 30% and the inhibition at 10 µM was below 30%.
For `Cc1cnnc(CN2CCN(c3cc(CC(C)C)ccc3-c3nn[nH]n3)CC2)c1` [Compound A-112, 3-[[4-[5-isobutyl-2-(2H-tetrazol-5-yl)phenyl]piperazin-1-yl]methyl]-5-methyl-pyridazine], the IC50 at human AT2R fused to Cb23 worked out at 0.697 µM. At human AT1R, the inhibition at 1 µM was below 30% and the inhibition at 10 µM was below 30%.
With `Cc1ccc(CN2CCN(c3cc(CC(C)C)ccc3-c3nn[nH]n3)CC2)nn1` [Compound A-113], the IC50 at human AT2R fused to Cb23 is 7.07 µM. Besides, at human AT1R, the inhibition at 1 µM is below 30% and the inhibition at 10 µM is below 30%.
Regarding `COc1ccc(CN2CCN(c3cc(CC(C)C)ccc3-c3nn[nH]n3)CC2)nn1` [Compound A-115, 3-[[4-[5-isobutyl-2-(2H-tetrazol-5-yl)-phenyl]piperazin-1-yl]methyl]-6-methoxy-pyridazine], the half-maximal inhibitory concentration (IC50) at human AT2R fused to Cb23 was 1.98 µM. For the same compound, at human AT1R, the inhibition at 1 µM was below 30% and the inhibition at 10 µM is below 30%.
Take `COc1cc(F)c(-c2nn[nH]n2)c(N2CCN(Cc3nc4ccccc4s3)CC2)c1` [Compound A-116, 2-[[4-[3-fluoro-5-methoxy-2-(2H-tetrazol-5-yl)phen-yl]piperazin-1-yl]-methyl]-1,3-benzo-thiazole]: the IC50 at human AT2R fused to Cb23 came to 8.98 µM. In addition, on human AT1R, the inhibition at 1 µM was below 30%, the inhibition at 10 µM was 30 to 50% and the IC50 came out at 18.1 µM.
As to `CC(C)Oc1cc(F)c(-c2nn[nH]n2)c(N2CCN(Cc3nc4ccccc4s3)CC2)c1` [Compound A-118, 2-[[4-[3-fluoro-5-isopropoxy-2-(2H-tetrazol-5-yl)phen-yl]piperazin-1-yl]-methyl]-1,3-benzo-thiazole], the half-maximal inhibitory concentration (IC50) on human AT2R fused to Cb23 amounted to 1 µM. On human AT1R, the inhibition at 1 µM was below 30%, the inhibition at 10 µM was below 30% and the IC50 turned out to be 41.5 µM.

The term IC50 denotes the concentration that gives 50% inhibition.
